Source: ChEMBL document CHEMBL1201862, “PubChem BioAssay data set” (2004)
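Following 48 hours of exposure in 96-well plates, responses at five concentrations were used to interpolate endpoints linearly. GI50: concentration for 50% inhibition of growth.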 The source made the active and inactive calls. No stated cut-off is given here; in the data, active = GI50 up to about 1.1 µM and inactive = higher.

How the values were obtained:
Test in all cases: growth of human tumour cells (NCI), 48 h
BT-549 = test system: BT-549
CAKI-1 = test system: CAKI-1
CCRF-CEM = test system: CCRF-CEM
COLO 205 = test system: COLO 205
K562 = test system: K562
MDA-MB-231 = test system: MDA-MB-231
MOLT-4 = test system: MOLT-4
NCI-H522 = test system: NCI-H522
NCI/ADR-RES = test system: NCI/ADR-RES
OVCAR-3 = test system: OVCAR-3
OVCAR-4 = test system: OVCAR-4
OVCAR-8 = test system: OVCAR-8
SF-295 = test system: SF-295
SN12C = test system: SN12C
SNB-75 = test system: SNB-75
SR = test system: SR
T47D = test system: T47D
UO-31 = test system: UO-31

| SMILES | GI50 (BT-549) | GI50 (CAKI-1) | GI50 (CCRF-CEM) | GI50 (COLO 205) | GI50 (K562) | GI50 (MDA-MB-231) | GI50 (MOLT-4) | GI50 (NCI-H522) | GI50 (NCI/ADR-RES) | GI50 (OVCAR-3) | GI50 (OVCAR-4) | GI50 (OVCAR-8) | GI50 (SF-295) | GI50 (SN12C) | GI50 (SNB-75) | GI50 (SR) | GI50 (T47D) | GI50 (UO-31) |
| --- | --- | --- | --- | --- | --- | --- | --- | --- | --- | --- | --- | --- | --- | --- | --- | --- | --- | --- |
| Cc1cc(Cc2c(F)c(F)c(C(c3cc(C)no3)c3c(F)c(F)c(F)c(F)c3F)c(F)c2F)on1 (centres undefined) | > 100 µM (inactive) | > 72.8 µM (inactive) | 62.7 µM (inactive) | > 100 µM (inactive) | 9.46 µM (inactive) | > 100 µM (inactive) | 17.1 µM (inactive) | 23.9 µM (inactive) | > 28.2 µM (inactive) | > 27.4 µM (inactive) | > 100 µM (inactive) | > 100 µM (inactive) | 5.41 µM (inactive) | > 50.7 µM (inactive) | 86.7 µM (inactive) | > 25.7 µM (inactive) | > 100 µM (inactive) | > 100 µM (inactive) |
| COC1=C(C)C(=O)c2c(c(COC(N)=O)c3n2CC(OC(C)=O)C3OC(C)=O)C1=O (centres undefined) | 0.296 µM (active) | < 0.01 µM (active) | 0.153 µM (active) | 0.116 µM (active) | 0.0191 µM (active) | 0.2 µM (active) | 0.242 µM (active) | 0.0137 µM (active) | 0.127 µM (active) | 0.09 µM (active) | 0.279 µM (active) | 0.0789 µM (active) | 0.0631 µM (active) | 0.0944 µM (active) | 0.208 µM (active) | < 0.01 µM (active) | 0.757 µM (active) | 0.15 µM (active) |
| CC(C)/C(Cl)=N\OC(=O)Nc1ccc(S(N)(=O)=O)cc1 | 2.75 µM (inactive) | 17.3 µM (inactive) | 1.75 µM (inactive) | 1.98 µM (inactive) | 2.79 µM (inactive) | 12.7 µM (inactive) | 2.32 µM (inactive) | 1.21 µM (inactive) | 18.7 µM (inactive) | 14.3 µM (inactive) | 25 µM (inactive) | 17.9 µM (inactive) | 15.7 µM (inactive) | 13.9 µM (inactive) | 9.33 µM (inactive) | 2.08 µM (inactive) | 22.6 µM (inactive) | 16.6 µM (inactive) |
| CC(C)NC(=O)OCc1c(COC(=O)NC(C)C)c(-c2ccc[n+](COC(=O)C3CCCCC3)c2)n2c1CCC2 | 48.1 µM (inactive) | 20.7 µM (inactive) | > 100 µM (inactive) | 93.1 µM (inactive) | > 100 µM (inactive) | 40.5 µM (inactive) | 45.5 µM (inactive) | 25.1 µM (inactive) | 60 µM (inactive) | > 100 µM (inactive) | 40.6 µM (inactive) | 51.2 µM (inactive) | 47.8 µM (inactive) | 47.6 µM (inactive) | 46.8 µM (inactive) | > 100 µM (inactive) | 57.8 µM (inactive) | 40.6 µM (inactive) |
| CN1C=Cc2nccc3cc4c(c1c23)OCO4 | 1.87 µM (inactive) | 0.986 µM (active) | 1.39 µM (inactive) | 3.18 µM (inactive) | 1.89 µM (inactive) | 3.08 µM (inactive) | 0.647 µM (active) | 0.776 µM (active) | 11.9 µM (inactive) | 5.53 µM (inactive) | 5.22 µM (inactive) | 5.68 µM (inactive) | 1.86 µM (inactive) | 1.64 µM (inactive) | 1.49 µM (inactive) | 0.495 µM (active) | 6.82 µM (inactive) | 2.96 µM (inactive) |
| Cc1cn([C@@H]2O[C@H](CO)[C@@H](O)[C@@H]2O)c(=O)[nH]c1=O | > 1000 µM (inactive) | > 1000 µM (inactive) | > 1000 µM (inactive) | > 1000 µM (inactive) | > 1000 µM (inactive) | > 1000 µM (inactive) | > 1000 µM (inactive) | > 1000 µM (inactive) | > 1000 µM (inactive) | > 1000 µM (inactive) | > 1000 µM (inactive) | > 1000 µM (inactive) | > 1000 µM (inactive) | > 1000 µM (inactive) | > 1000 µM (inactive) | > 1000 µM (inactive) | > 1000 µM (inactive) | > 1000 µM (inactive) |
| CCOC(=O)C#Cc1ccc(C#CC(=O)OCC)cc1 | 3.95 µM (inactive) | 2.35 µM (inactive) | 1.66 µM (inactive) | 6.21 µM (inactive) | 2 µM (inactive) | 5.11 µM (inactive) | 1.02 µM (active) | 2.9 µM (inactive) | 6.43 µM (inactive) | 2.77 µM (inactive) | 2.83 µM (inactive) | 3.49 µM (inactive) | 13.5 µM (inactive) | 3.21 µM (inactive) | 0.0381 µM (active) | 0.604 µM (active) | > 21.2 µM (inactive) | 3.43 µM (inactive) |
| CC(C)C(OC(=O)c1ccc(NCC2=CC(=O)C=CC2=O)cc1)C(C)C | 3.52 µM (inactive) | 1.4 µM (inactive) | 0.474 µM (active) | 2.79 µM (inactive) | 3.66 µM (inactive) | 7.06 µM (inactive) | 2.01 µM (inactive) | 1.22 µM (inactive) | 4.3 µM (inactive) | 4.12 µM (inactive) | 3.64 µM (inactive) | 3.03 µM (inactive) | 13.2 µM (inactive) | 9.16 µM (inactive) | 4.35 µM (inactive) | 3.23 µM (inactive) | 2.1 µM (inactive) | 1.82 µM (inactive) |
